# According to the supplement of paper PMC4862054:
# What was measured:
# Settings in all cases: incubation time: 72 h
# [1] = tested on: BT-474; experiment: normalised response (% of control), CellTox Green; higher = less cell death (100 = DMSO, 0 = benzethonium chloride kill control)
# How it was run: (§1)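 The table gives the normalised signal for a single concentration in each entry. Breast cancer cell lines were seeded (20 µl suspension) into 384-well plates holding compound at 5 concentrations in 10-fold steps over a compound-specific 10,000-fold range and incubated 72 h, then read for CellTox Green fluorescence (485/520 nm) and CellTiter-Glo luminescence. Normalisation on each plate used 0.1 % DMSO (100) and a positive kill control (0).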
# [2] = tested on: BT-549; experiment: as above
# How it was run: as §1
# [3] = tested on: CAL-120; experiment: as above
# How it was run: as §1
# [4] = tested on: CAL-148; experiment: as above
# How it was run: as §1
# [5] = tested on: CAL-51; experiment: as above
# How it was run: as §1
# [6] = tested on: CAL-85-1; experiment: as above
# How it was run: as §1
# [7] = tested on: DU-4475; experiment: as above
# How it was run: as §1
# [8] = tested on: HCC1143; experiment: as above
# How it was run: as §1
# [9] = tested on: HCC1599; experiment: as above
# How it was run: as §1
# [10] = tested on: HCC1937; experiment: as above
# How it was run: as §1
# [11] = tested on: HDQ-P1; experiment: as above
# How it was run: as §1
# [12] = tested on: MCF-10A; experiment: as above
# How it was run: as §1
# [13] = tested on: MDA-MB-231; experiment: as above
# How it was run: as §1
# [14] = tested on: MDA-MB-436; experiment: as above
# How it was run: as §1
# [15] = tested on: MDA-MB-453; experiment: as above
# How it was run: as §1
# [16] = tested on: MDA-MB-468; experiment: as above
# How it was run: as §1
# [17] = tested on: MFM-223; experiment: as above
# How it was run: as §1
# [18] = tested on: BT-474; experiment: normalised response (% of control), CellTiter-Glo; higher = more viable cells (100 = DMSO, 0 = benzethonium chloride kill control)
# Description: (§2)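 DSRT, 72 h incubation, CellTox Green / CellTiter-Glo readout. Signal is normalised to DMSO and benzethonium chloride controls. Value is the normalised response at dose 3.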
# [19] = tested on: BT-549; experiment: as above
# Description: as §2
# [20] = tested on: CAL-120; experiment: as above
# Description: as §2
# [21] = tested on: CAL-148; experiment: as above
# Description: as §2
# [22] = tested on: CAL-51; experiment: as above
# Description: as §2
# [23] = tested on: CAL-85-1; experiment: as above
# Description: as §2
# [24] = tested on: DU-4475; experiment: as above
# Description: as §2
# [25] = tested on: HCC1143; experiment: as above
# Description: as §2
# [26] = tested on: HCC1599; experiment: as above
# Description: as §2
# [27] = tested on: HCC1937; experiment: as above
# Description: as §2
# [28] = tested on: HDQ-P1; experiment: as above
# Description: as §2
# [29] = tested on: Hs578T; experiment: as above
# Description: as §2
# [30] = tested on: MCF-10A; experiment: as above
# Description: as §2
# [31] = tested on: MDA-MB-231; experiment: as above
# Description: as §2
# [32] = tested on: MDA-MB-436; experiment: as above
# Description: as §2
# [33] = tested on: MDA-MB-453; experiment: as above
# Description: as §2
# [34] = tested on: MDA-MB-468; experiment: as above
# Description: as §2
# [35] = tested on: MFM-223; experiment: as above
# Description: as §2
# [36] = tested on: SK-BR-3; experiment: as above
# Description: as §2
# [37] = tested on: Hs578T; experiment: normalised response (% of control), CellTox Green; higher = less cell death (100 = DMSO, 0 = benzethonium chloride kill control)
# How it was run: as §1
SMILES,normalised response [1] [%],normalised response [2] [%],normalised response [3] [%],normalised response [4] [%],normalised response [5] [%],normalised response [6] [%],normalised response [7] [%],normalised response [8] [%],normalised response [9] [%],normalised response [10] [%],normalised response [11] [%],normalised response [12] [%],normalised response [13] [%],normalised response [14] [%],normalised response [15] [%],normalised response [16] [%],normalised response [17] [%],normalised response [18] [%],normalised response [19] [%],normalised response [20] [%],normalised response [21] [%],normalised response [22] [%],normalised response [23] [%],normalised response [24] [%],normalised response [25] [%],normalised response [26] [%],normalised response [27] [%],normalised response [28] [%],normalised response [29] [%],normalised response [30] [%],normalised response [31] [%],normalised response [32] [%],normalised response [33] [%],normalised response [34] [%],normalised response [35] [%],normalised response [36] [%],normalised response [37] [%]
CCS(=O)(=O)c1cccc(-c2cc(C(=O)NC3CCN(C)CC3)c(C)c3[nH]c4ncc(C)cc4c23)c1 [TAK-901] (10 nM),100,72.2,103,105,98.6,95.7,101,69,104,120,108,78.2,100,96,101,77.1,101,102,101,99.6,104,92.4,100,107,98.7,120,93.4,97,108,104,101,110,103,94.7,109,108,–
Nc1nccc(-c2c(-c3ccc(F)cc3)ncn2C2CCCCC2)n1 (100 nM),103,93.9,102,101,94.3,97.7,107,100,98.9,78.4,104,110,112,81.8,98.8,–,104,99.9,98.3,105,105,84.4,98.9,101,112,102,102,95.2,104,105,106,113,104,96.2,102,97.3,86.7
CN(c1ccccc1CNc1nc(Nc2ccc3c(c2)CC(=O)N3)ncc1C(F)(F)F)S(C)(=O)=O (100 nM),94.5,97.5,99.9,99.2,87.6,102,98.1,84.4,94,83.4,–,–,85.8,80.3,103,115,103,89.8,97.9,87.2,104,93.1,95.5,95.6,96.5,98.3,96.5,101,94.3,86.2,89.6,91.9,90.4,88.5,95.5,88.3,104
Cc1cc(C(C)Nc2ccccc2)c2nc(N3CCOCC3)cc(=O)n2c1 (centres undefined) [TGX-221] (100 nM),89.3,92.5,105,81,90.6,114,99.1,74.4,95.3,80.5,–,108,–,97,96,52.6,99.2,90.1,86.5,97.2,100,65.8,99.7,95.8,96.4,113,88.1,98.7,93.9,93.5,92.7,94,93.2,86.4,94,99.7,98.5
O=c1[nH]c(=O)n([C@H]2C[C@H](O)[C@@H](CO)O2)cc1F [Floxuridine] (100 nM),102,114,107,–,95.6,87.3,107,63.4,113,51.1,–,97.8,115,115,104,96.2,98.5,99.3,94.4,99.3,110,57.2,57,103,103,66.8,75.4,90.8,28,109,100,74.6,116,86.1,113,71.4,103
CS(=O)(=O)CCNCc1ccc(-c2ccc3ncnc(Nc4ccc(OCc5cccc(F)c5)c(Cl)c4)c3c2)o1 [Lapatinib] (10 nM),97.8,91.8,101,–,99.4,87.4,101,109,103,90.5,82.1,100,76.9,107,103,87.9,105,101,105,107,112,90.1,101,106,103,97.6,99.2,95.7,106,95.5,103,100,105,99.1,109,87.1,104
CC(C)(C)c1cc(NC(=O)Nc2ccc(-c3cn4c(n3)sc3cc(OCCN5CCOCC5)ccc34)cc2)no1 [Quizartinib] (10 nM),97.6,104,94.6,108,89.8,107,99.3,125,117,–,92.7,106,99.1,95.2,93.9,137,102,109,108,108,103,71.4,103,97.9,104,89,98,101,102,105,108,109,101,103,105,104,107
COC1=C2C[C@@H](C)C[C@H](OC)[C@H](O)[C@@H](C)/C=C(\C)[C@H](OC(N)=O)[C@@H](OC)/C=C\C=C(/C)C(=O)NC(=CC1=O)C2=O [Geldanamycin] (100 nM),100,99.4,99.7,106,96,96.5,104,76.5,106,111,106,95.5,103,–,106,–,95.2,102,96.5,109,118,84.7,108,106,104,109,101,102,107,103,113,107,113,106,115,105,–
Cn1c(=O)c(F)c(Nc2ccc(I)cc2F)c2c(=O)n(C[C@@H](O)CO)cnc21 [TAK-733] (10 nM),103,105,103,107,104,104,95.9,118,119,–,-40.4,90.9,99.2,114,112,113,104,89.8,104,97.6,97.2,84.7,93.7,38.9,92.6,82.3,88,74.5,96.8,53.8,90.3,104,115,92.6,102,107,71.8
